Measured values published in US20180360972A1, “THERAPEUTIC COMPOUNDS” (REGENTS OF THE UNIVERSITY OF MINNESOTA, priority 2017, published 2018).

Key:
[1] = biological target: mMC4R-NanoLuc and mMC4R-HaloTag homodimer (Mus musculus, UniProt P56450); assay: NanoBRET ligand-dependent modulation of BRET signal; details: for reduction in BRET signal compared to basal signal: ligand at 10 μM; for change in BRET signal (in words): 10^−5, 10^−7 and 10^−9 M vs assay buffer
Description: On the first day, cells were plated into 6 well plates in the morning. In the afternoon of the same day, cells were transiently transfected with mMC4R-NanoLuc® fusion protein and the MC4R-HaloTag® fusion protein by adding FuGene6 Transfection (8 μL/well, Promega), DNA (2 μg/well) in OptiMem medium (Invitrogen) at a total volume of 100 μL/well. […] Cells were incubated with transfection reagent overnight at 5% CO2 at 37° C.
This provides the background signal and was subtracted from the final experimental signal. Plates were then developed 48 to 60 hours after transfection. Two hours before the plates were developed, 10 μL of a 10× aliquot of the ligand diluted in assay buffer was added to each well to yield the final in well concentration (10^−5, 10^−7, or 10^−9M) of each compound. For the assay buffer control, 10 μL of assay buffer was added instead of compound. […] The standard error of the mean (SEM) was derived from at least three independent experiments.

hMC4R = biological target: T1, hMC4R (Homo sapiens, UniProt P32245); assay: AlphaScreen cAMP functional bioassay, hMC4R; assay type: cell-based; details: HEK293 cells stably expressing hMC4R
T1 construct: Flag; expressed in transfected cells
T1 sequence (P32245 whole entry): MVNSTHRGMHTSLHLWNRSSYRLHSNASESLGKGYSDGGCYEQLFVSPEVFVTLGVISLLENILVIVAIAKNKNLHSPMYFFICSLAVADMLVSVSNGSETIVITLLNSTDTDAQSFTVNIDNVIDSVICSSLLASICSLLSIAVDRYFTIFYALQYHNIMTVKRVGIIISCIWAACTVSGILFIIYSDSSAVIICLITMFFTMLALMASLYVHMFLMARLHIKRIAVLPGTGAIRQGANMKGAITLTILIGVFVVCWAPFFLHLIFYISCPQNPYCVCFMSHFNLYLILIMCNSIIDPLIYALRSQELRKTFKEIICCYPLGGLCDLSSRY
Description: Upon agonist stimulation, melanocortin receptors are known to signal through a Gαs-protein mediated signaling pathway that results in intracellular cAMP accumulation.
Stable populations were selected for using G418 selection (0.7-1.0 mg/mL) and used in bioassays unless indicated otherwise. In vitro experimental ligands were dissolved to a 10^−2 M stock in DMSO and stored at −20° C. Subsequent dilutions were performed in each assay's specific buffer to achieve the final concentration in the well. The ligands were assayed as TFA salts.
AlphaScreen cAMP Functional Bioassay
The AlphaScreen® assay was performed as described by manufacturer.
Cells were removed from plates using Gibco® Versene solution and pelleted by centrifugation (Sorvall Super T21 high speed centrifuge, swinging bucket rotor) at 800 rpm for five minutes. […] A 10 μL aliquot of cell suspension was counted manually using a hemocytometer after addition of Trypan blue dye (BioRad). Cells were again pelleted by centrifugation, and DPBS was gently aspirated. The pelleted cells were then resuspended in a solution of freshly made stimulation buffer (Hank's Balanced Salt Solution [HBSS 10× [−] sodium bicarbonate] and [−] phenol red, Gibco®], 0.5 mM isobutylmethylxanthine [IBMX], 5 mM HEPES buffer solution [1M, Gibco®], 0.1% bovine serum albumin [BSA] in Milli-Q water, pH=7.4) and anti-cAMP acceptor beads (1.0 unit per well, AlphaScreen®). […] The cells were then stimulated with ligand diluted in stimulation buffer to achieve their final concentrations in the well ranging from 10^−13 to 10^−4 M. The stimulated plates were incubated in a dark laboratory drawer at room temperature for two hours.
Meanwhile, a biotinylated cAMP/streptavidin donor bead working solution was made by adding biotinylated cAMP (1 Unit/well, AlphaScreen®) and streptavidin donor beads (1 Unit/well, AlphaScreen®) to a lysis buffer (10% Tween-20, 5 mM HEPES buffer solution [1M, Gibco®], 0.1% bovine serum albumin [BSA] in Milli-Q water, pH=7.4). After the two hour stimulation, the biotinylated cAMP/Streptavidin donor bead working solution was added to each well under green light and mixed well by pipetting up and down. The cells were incubated for another two hours at room temperature in a dark drawer at room temperature. The plate was then read on an EnSpire™ Alpha plate reader using a pre-normalized assay protocol set by the manufacturer. Assays were performed with duplicate data points on each plate and repeated in at least three independent experiments.
Dose response curves were analyzed using the PRISM program (v4.0; GraphPad Inc.).

Chain of mMC4R-NanoLuc and mMC4R-HaloTag homodimer (P56450 whole entry): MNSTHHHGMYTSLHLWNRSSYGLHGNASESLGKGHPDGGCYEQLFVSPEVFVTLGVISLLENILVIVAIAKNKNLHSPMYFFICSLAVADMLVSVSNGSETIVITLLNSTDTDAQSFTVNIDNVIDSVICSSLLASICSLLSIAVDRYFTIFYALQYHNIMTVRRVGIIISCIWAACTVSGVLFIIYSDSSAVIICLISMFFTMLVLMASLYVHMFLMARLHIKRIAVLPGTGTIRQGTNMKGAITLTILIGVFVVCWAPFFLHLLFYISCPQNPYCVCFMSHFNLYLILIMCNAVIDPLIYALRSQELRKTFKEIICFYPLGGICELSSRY
Chain of mMC4R-NanoLuc and mMC4R-HaloTag homodimer (P56450 whole entry): as above

Row | Compound | reduction in BRET signal compared to basal signal [1] | cAMP agonist potency (in words) (hMC4R) | change in BRET signal (in words) [1]
1 | CC(=O)N[C@@H](Cc1c[nH]cn1)C(=O)N[C@H](Cc1ccccc1)C(=O)N[C@@H](CCCNC(=N)N)C(=O)N[C@@H](Cc1c[nH]c2ccccc12)C(=O)NCCCOCCOCCOCCCNC(=O)COCC(=O)N[C@@H](Cc1c[nH]cn1)C(=O)N[C@H](Cc1ccccc1)C(=O)N[C@@H](CCCNC(=N)N)C(=O)N[C@@H](Cc1c[nH]c2ccccc12)C(N)=O [CJL-1-87] | ~15% | – | –
2 | Ac-His-DNal(2′)-Arg-Trp-(PEDG20)-(PEDG20)-His-DPhe-Arg-Trp-NH2 [CJL-5-74, MUmBL; linker assigned from order of b161-b164 and b248] | – | single digit nanomolar agonists | –
3 | Ac-His-DPhe-Arg-Trp-NH2 [CJL-1-14] | 15% | – | dose dependent decrease in BRET signal
4 | α-MSH | 15% | – | dose dependent decrease in BRET signal
